Experimental data taken from ChEMBL document CHEMBL3124853, “Synthesis and anti-Candidal activity of N-(4-aryl/cyclohexyl)-2-(pyridine-4-yl carbonyl) hydrazinecarbothioamide” (Bioorg Med Chem Lett, 2014).
≈ marks a conversion by molar mass, not a printed value.

Tests used:
[1] = tested on: Candida; test: Antifungal activity against Candida sp. clinical isolate 178 derived from high vaginal swabs by microbroth dilution method; format: functional
[2] = tested on: Candida parapsilosis; test: Antifungal activity against Candida parapsilosis ATCC 22019 by microbroth dilution method; format: functional; conditions: Lodderomyces parapsilosis
[3] = tested on: Candida; test: Antifungal activity against Candida sp. clinical isolate 12341 derived from urine by microbroth dilution method; format: functional; conditions: clinical isolate 12341, Urine
[4] = tested on: Candida; test: Antifungal activity against Candida sp. clinical isolate 11972 derived from high vaginal swabs by microbroth dilution method; format: functional
[5] = Cytotoxicity against human MCF10A cells after 48 hrs by WST1 assay; format: cell-based; conditions: MCF-10A
[6] = tested on: Candida tropicalis; test: Antifungal activity against Candida tropicalis ATCC 66029 by microbroth dilution method; format: functional
[7] = tested on: Candida; test: Antifungal activity against Candida sp. clinical isolate 12810 derived from blood by microbroth dilution method; format: functional
[8] = tested on: Candida; test: Antifungal activity against Candida sp. clinical isolate 13184 derived from high vaginal swabs by microbroth dilution method; format: functional
[9] = tested on: Candida albicans; test: Antifungal activity against Candida albicans ATCC 66027 by microbroth dilution method; format: functional
[10] = tested on: Candida; test: Antifungal activity against Candida sp. clinical isolate 12485 derived from urine by microbroth dilution method; format: functional; conditions: clinical isolate 12485, Urine
[11] = tested on: Candida; test: Antifungal activity against Candida sp. clinical isolate 300 derived from urine by microbroth dilution method; format: functional; conditions: clinical isolate 300, Urine
[12] = tested on: HepG2; test: Cytotoxicity against human HepG2 cells after 48 hrs by MTT assay; format: cell-based; conditions: HepG2, 48 h
[13] = tested on: A549; test: Cytotoxicity against human A549 cells after 48 hrs by MTT assay; format: cell-based; conditions: A549, 48 h
[14] = Cytotoxicity against human HT1080 cells after 48 hrs by MTT assay; format: cell-based; conditions: HT-1080, 48 h

Row | SMILES | MIC [1] [µg/mL] | MIC [2] [µg/mL] | MIC [3] [µg/mL] | MIC [4] [µg/mL] | IC50 [5] [µM] | MIC [6] [µg/mL] | MIC [7] [µg/mL] | MIC [8] [µg/mL] | MIC [9] [µg/mL] | MIC [10] [µg/mL] | MIC [11] [µg/mL] | IC50 [12] [µg/mL] | IC50 [13] [µg/mL] | IC50 [14] [µg/mL]
1 | Cc1cccc(C)c1NC(=S)NNC(=O)c1ccncc1 | 6.25 (≈ 20.8 µM) | 0.78 (≈ 2.6 µM) | 6.25 (≈ 20.8 µM) | 12.5 (≈ 41.6 µM) | > 300 | 0.78 (≈ 2.6 µM) | 1.6 (≈ 5.33 µM) | 6.25 (≈ 20.8 µM) | 0.78 (≈ 2.6 µM) | 6.25 (≈ 20.8 µM) | 0.78 (≈ 2.6 µM) |  |  | 
2 | CCC(C)n1ncn(-c2ccc(N3CCN(c4ccc(OCC5COC(Cn6cncn6)(c6ccc(Cl)cc6Cl)O5)cc4)CC3)cc2)c1=O (stereo not drawn) [ITRACONAZOLE] | 0.19 (≈ 0.269 µM) | 0.04 (≈ 0.0567 µM) | 0.09 (≈ 0.128 µM) | 0.02 (≈ 0.0283 µM) | > 300 | 0.19 (≈ 0.269 µM) | 0.25 (≈ 0.354 µM) | 0.39 (≈ 0.553 µM) | 1.56 (≈ 2.21 µM) | 0.04 (≈ 0.0567 µM) | 0.09 (≈ 0.128 µM) | 142 (≈ 201 µM) | 182 (≈ 258 µM) | 202 (≈ 286 µM)
3 | O=C(NNC(=S)Nc1ccc(I)cc1)c1ccncc1 | 0.09 (≈ 0.226 µM) | 0.19 (≈ 0.477 µM) | 0.19 (≈ 0.477 µM) | 0.19 (≈ 0.477 µM) | > 300 | 0.19 (≈ 0.477 µM) | 0.39 (≈ 0.979 µM) | 1.6 (≈ 4.02 µM) | 0.39 (≈ 0.979 µM) | 0.78 (≈ 1.96 µM) | 1.6 (≈ 4.02 µM) |  |  | 
4 | O=C(NNC(=S)Nc1cccc(Cl)c1)c1ccncc1 | 6.25 (≈ 20.4 µM) | 0.78 (≈ 2.54 µM) | 0.78 (≈ 2.54 µM) | 0.39 (≈ 1.27 µM) | > 300 | 1.6 (≈ 5.22 µM) | 0.09 (≈ 0.293 µM) | 6.25 (≈ 20.4 µM) | 0.19 (≈ 0.619 µM) | 6.25 (≈ 20.4 µM) | 0.78 (≈ 2.54 µM) |  |  | 
5 | COc1cccc(NC(=S)NNC(=O)c2ccncc2)c1 | > 50 | > 50 | > 50 | > 50 | > 300 | > 50 | > 50 | > 50 | > 50 | > 50 | > 50 |  |  | 
6 | O=C(NNC(=S)Nc1ccccc1[N+](=O)[O-])c1ccncc1 | 0.39 (≈ 1.23 µM) | 6.25 (≈ 19.7 µM) | 6.25 (≈ 19.7 µM) | 6.25 (≈ 19.7 µM) | > 300 | 0.19 (≈ 0.599 µM) | 0.39 (≈ 1.23 µM) | 0.78 (≈ 2.46 µM) | 1.6 (≈ 5.04 µM) | 0.39 (≈ 1.23 µM) | 1.6 (≈ 5.04 µM) | 410 (≈ 1290 µM) | 813 (≈ 2560 µM) | 833 (≈ 2630 µM)
7 | O=C(NNC(=S)NC1CCCCC1)c1ccncc1 | > 50 | > 50 | > 50 | > 50 | > 300 | > 50 | > 50 | > 50 | > 50 | > 50 | > 50 |  |  | 
8 | Cc1ccccc1N=C(S)NNC(=O)c1ccncc1 | > 50 | > 50 | > 50 | > 50 | > 300 | > 50 | > 50 | > 50 | > 50 | > 50 | > 50 |  |  | 
9 | Cc1ccc(NC(=S)NNC(=O)c2ccncc2)cc1 | > 50 | > 50 | > 50 | > 50 | 229 | > 50 | > 50 | > 50 | > 50 | > 50 | > 50 |  |  | 
10 | CCOc1ccc(NC(=S)NNC(=O)c2ccncc2)cc1 | > 50 | > 50 | > 50 | > 50 | > 300 | > 50 | > 50 | > 50 | > 50 | > 50 | > 50 |  |  | 
11 | O=C(O)c1cn(C2CC2)c2cc(N3CCNCC3)c(F)cc2c1=O [CIPROFLOXACIN] |  |  |  |  | > 300 |  |  |  |  |  |  |  |  | 
12 | CC(=O)Nc1ccc(NC(=S)NNC(=O)c2ccncc2)cc1 | 0.19 (≈ 0.577 µM) | 0.19 (≈ 0.577 µM) | 1.6 (≈ 4.86 µM) | 0.78 (≈ 2.37 µM) | > 300 | 0.19 (≈ 0.577 µM) | 1.6 (≈ 4.86 µM) | 1.6 (≈ 4.86 µM) | 0.39 (≈ 1.18 µM) | 1.6 (≈ 4.86 µM) | 1.6 (≈ 4.86 µM) |  |  | 
13 | O=C(NNC(=S)Nc1ccc(Cl)cc1)c1ccncc1 | 0.19 (≈ 0.619 µM) | 0.19 (≈ 0.619 µM) | 0.19 (≈ 0.619 µM) | 0.19 (≈ 0.619 µM) | > 300 | 0.19 (≈ 0.619 µM) | 0.09 (≈ 0.293 µM) | 0.78 (≈ 2.54 µM) | 0.09 (≈ 0.293 µM) | 0.39 (≈ 1.27 µM) | 0.39 (≈ 1.27 µM) | 1200 (≈ 3910 µM) | 410 (≈ 1340 µM) | 540 (≈ 1760 µM)
14 | COc1ccccc1N=C(S)NNC(=O)c1ccncc1 | > 50 | > 50 | > 50 | > 50 | > 300 | > 50 | > 50 | > 50 | > 50 | > 50 | > 50 |  |  | 
15 | O=C(NNC(=S)Nc1ccc(S(=O)(=O)Nc2ncccn2)cc1)c1ccncc1 | > 50 | > 50 | > 50 | > 50 | > 300 | > 50 | > 50 | > 50 | > 50 | > 50 | > 50 |  |  | 
16 | COc1ccc(NC(=S)NNC(=O)c2ccncc2)cc1 | > 50 | > 50 | > 50 | > 50 | 47.5 | > 50 | > 50 | > 50 | > 50 | > 50 | > 50 |  |  | 
17 | O=C(NNC(=S)Nc1ccc([N+](=O)[O-])cc1)c1ccncc1 | > 50 | > 50 | > 50 | > 50 | > 300 | > 50 | > 50 | > 50 | > 50 | > 50 | > 50 |  |  | 
18 | CCc1cccc(NC(=S)NNC(=O)c2ccncc2)c1 | > 50 | > 50 | > 50 | > 50 | > 300 | > 50 | > 50 | > 50 | > 50 | > 50 | > 50 |  |  | 
19 | Cc1cccc(NC(=S)NNC(=O)c2ccncc2)c1 | > 50 | > 50 | > 50 | > 50 | > 300 | > 50 | > 50 | > 50 | > 50 | > 50 | > 50 |  |  | 
